Measurements from publication PMC8545574, “Antioxidant, Anti-Inflammatory, and Antidiabetic Activities of Bioactive Compounds from the Fruits of Livistona chinensis Based on Network Pharmacology Prediction” (Oxidative Medicine and Cellular Longevity, 2021).
In brackets after ≈: the same amount, converted by molar mass. Several values for one entry are separate records, joined by “and”; a condition that tells them apart may be missing. Identical values can stand only once. Like-named read-outs stand apart in the source and are kept apart here.

Experiments:
[1] = DPPH free radical scavenging assay; assay type: biochemical; settings: mean ± SD, n = 3
Procedure: The DPPH free radical scavenging assay was performed according to a previously reported method. A series of different concentrations of the tested samples and the positive control ascorbic acid were mixed with freshly prepared DPPH (0.2 mM) in a 96-well microplate with a total volume of 150 μL. After leaving the mixture to react in the dark for 30 min, its absorbance was determined at 517 nm. All of the wells with only samples were set as blanks to obtain an absorbance value, which was subtracted from the test sample readings. The percentage inhibition (%) for each sample was calculated by the following formula: (1) Inhibition %=Absblank−Abssamples/Absblank×100%, where Absblank and Abssamples correspond to the absorbance units (at 517 nm) of DPPH solutions incubated in the absence and presence of the tested samples.

[2] = ABTS radical cation scavenging assay; assay type: biochemical; settings: mean ± SD, n = 3
Procedure: The ABTS radical cation (ABTS·+) was prepared by reacting ABTS with potassium persulfate following the method previously described. The ABTS radical cation (ABTS·+) was prepared by mixing with 2.45 mM potassium persulfate and equal volumes of an ABTS solution (7 mM), and then, they were permitted to react in the darkness at room temperature for 12–16 h. Thereafter, the ABTS reagent was diluted with methyl alcohol until reaching an absorbance of 0.70 ± 0.02 units at 734 nm. In a 96-well microplate, ABTS reagent (190 μL in each well) and samples (10 μL in each well) were incubated at room temperature for 20 min. To determine the antioxidant capacity by the ABTS method, the experimental conditions and protocol were identical to those of the DPPH assay. The only difference was that the absorbance was measured at 734 nm.

[3] = test system: LPS-stimulated NO release in RAW 264.7 cells; test: Nitrite (Griess) assay of LPS-stimulated NO release; assay type: cell-based
Procedure: The level of NO production was tested by measuring the nitrite level in the culture medium with the Griess method. Cells were seeded at a density of 2 × 10^4 cells per well in 96-well plates. […] A microplate reader was employed for the optical density measurement at 570 nm.

PTP1B = target: T1, PTP1B (Homo sapiens, UniProt P18031); test: PTP1B inhibitory assay (p-NPP substrate)
T1 sequence (P18031 1-321 limits assumed): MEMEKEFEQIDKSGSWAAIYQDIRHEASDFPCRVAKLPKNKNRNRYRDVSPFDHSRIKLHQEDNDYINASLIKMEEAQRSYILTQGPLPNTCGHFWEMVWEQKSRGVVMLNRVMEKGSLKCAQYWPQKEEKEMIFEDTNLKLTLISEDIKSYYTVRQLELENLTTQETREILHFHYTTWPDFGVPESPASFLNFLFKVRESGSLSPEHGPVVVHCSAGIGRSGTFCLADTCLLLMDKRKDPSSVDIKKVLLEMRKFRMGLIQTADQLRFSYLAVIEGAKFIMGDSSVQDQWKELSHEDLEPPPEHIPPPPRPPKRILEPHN
Procedure: PTP1B (10 μg/mL stock solution) was dissolved in 10 mM citrate buffer (pH 6.0), 1 mM dithiothreitol (DTT), and 1 mM N, N, N′, N′-ethylenediaminetetraacetate (EDTA). 20.0 μL PTP1B stock solution and 60 μL citrate buffer were added to each well of a 96-well plastic plate.

[4] = target: α-Glucosidase (from Baker's yeast); test: α-Glucosidase inhibitory assay (p-NPG substrate); settings: read-out: IC50 α-Glucosidase inhibitory effect; mean ± SD, n = 3
Procedure: The extract, fractions, and compounds were dissolved in 5% DMSO and then diluted with phosphate buffer. Briefly, 80 μL PBS, 20 μL of varying concentrations of sample solutions, and 20 μL α-glucosidase solution (1.3 U/mL) were mixed and incubated in 96-well plates at 37°C for 5 min. The reaction started when 20 μL p-nitrophenyl-α-D-glucopyranoside (2.5 mM) was added to the plate. The reaction mixture was incubated for 15 min at 37°C, and then, 80 μL Na2CO3 (0.2 M) was added to stop the reaction.

[5] = Mus musculus, RAW264.7, LPS (1 μg/mL)-stimulated RAW 264.7 cells, mean ± SD, n = 3, read-out: IC50 NO production anti-inflammatory effect

Row | Compound | IC50 [1] [µM] | IC50 [2] [µM] | IC50 [3, 5] | IC50 (PTP1B; read-out: IC50 PTP1B inhibitory effect, mean ± SD, n = 3) [µM] | IC50 [4] [µM] | IC50 DPPH scavenging activity ([1]; extract and fractions) [µg/mL] | IC50 ABTS scavenging activity ([2]; extract and fractions) [µg/mL] | IC50 (PTP1B) [µM] | IC50 ([3]; Mus musculus, RAW264.7, read-out: IC50 NO production anti-inflammatory effect) [µM] | IC50 ([3]; LPS (1 μg/mL)-stimulated RAW 264.7 cells, mean ± SD, n = 3, read-out: IC50 NO production anti-inflammatory effect) [µM]
1 | COc1cc([C@@H](O)[C@H](CO)Oc2c(OC)cc([C@@H]3OC[C@@H]4[C@H]3CO[C@H]4c3ccc(O)c(OC)c3)cc2OC)ccc1O (single isomer, unassigned) [Compound 33] | 66.67 ± 0.52 | 33.4 ± 0.45 | 47.4 ± 0.85 µM | 62.1 ± 0.73 | 50.9 ± 1.78 | – | – | – | – | –
2 | O=C1O[C@H]([C@@H](O)CO)C(O)=C1O [Ascorbic acid, reference compound] | 35.1 ± 1.02 | 50.9 ± 1.25 | – | – | – | 6.18 ± 0.18 (≈ 35.1 µM) | 8.96 ± 0.22 (≈ 50.9 µM) | – | – | –
3 | Oc1ccc([C@H]2Oc3cc(O)cc(O)c3C[C@H]2O)cc1 [Compound 2, (-)-epiafzelechin] | 43.4 ± 0.46 | 15 ± 0.11 | – | – | 62.5 ± 1.92 | – | – | 39.25 ± 0.14 | – | –
4 | Oc1cc(O)c2c(c1)O[C@H](c1ccc(O)c(O)c1)[C@@H](O)C2 [Compound 3, (+)-catechin] | 26.4 ± 0.39 | 11.29 ± 0.09 | – | – | 89 ± 1.95 | – | – | 91.78 ± 0.68 | – | –
5 | Oc1cc(O)c2c(c1)O[C@H](c1ccc(O)c(O)c1)[C@H](O)C2 [Compound 4, (-)-epicatechin] | 32 ± 0.37 | 13.46 ± 0.09 | – | – | 24 ± 0.38 | – | – | 38.66 ± 0.21 | – | –
6 | COc1cc(O)c2c(=O)cc(-c3ccc(O)cc3)oc2c1 [Compound 7, genkwanin] | 78.76 ± 0.61 | 63.11 ± 0.24 | 70.79 ± 0.67 µM | – | > 100 | – | – | 30.2 ± 0.45 | – | –
7 | COc1cc(-c2cc(=O)c3c(O)cc(O)cc3o2)cc(OC)c1O [Compound 8, tricin] | 61.25 ± 0.31 | 24.1 ± 0.32 | – | – | > 100 | – | – | > 100 | – | –
8 | O=c1cc(-c2ccc(O)cc2)oc2c([C@@H]3O[C@H](CO)[C@@H](O)[C@H](O)[C@H]3O)c(O)cc(O)c12 [Compound 9, vitexin] | 92.26 ± 0.32 | 85.04 ± 0.24 | – | – | 98.6 ± 1.2 | – | – | 30.6 ± 0.48 | – | –
9 | COc1cc(-c2cc(=O)c3c(O)cc(O[C@@H]4O[C@H](CO)[C@@H](O)[C@H](O)[C@H]4O)cc3o2)cc(OC)c1O [Compound 10, tricin-7-O-β-D-glucoside] | > 100 | 91.1 ± 1.1 | – | – | > 100 | – | – | – | 65.8 ± 1.47 | –
10 | COc1cc(-c2oc3cc(O)cc(O)c3c(=O)c2O[C@@H]2O[C@H](CO)[C@@H](O)[C@H](O)[C@H]2O)ccc1O [Compound 11, isorhamnetin-3-O-β-D-glucoside] | 21.8 ± 0.26 | 36.71 ± 0.33 | – | – | > 100 | – | – | – | – | –
11 | C[C@@H]1O[C@@H](O[C@H]2C(=O)c3c(O)cc(O)cc3O[C@@H]2c2ccc(O)c(O)c2)[C@H](O)[C@H](O)[C@H]1O [Compound 12, astilbin] | 46.46 ± 0.4 | 43.1 ± 0.29 | – | – | > 100 | – | – | > 100 | – | –
12 | COc1cc(C2Oc3c(OC)cc(CCCO)cc3C2CO)ccc1O [Compound 13, (7S,8R)-dihydrodehydrodiconiferyl alcohol] | 87.78 ± 0.74 | 24.6 ± 0.31 | 76.69 ± 0.51 µM | – | 88.62 ± 0.49 | – | – | > 100 | – | –
13 | COc1cc(C2Oc3c(OC)cc(CCCO)cc3C2CO)cc(OC)c1O [Compound 14, (7S,8R)-5-methoxydihydrodehydroconiferyl alcohol] | 60.3 ± 0.16 | 45.13 ± 0.41 | 70 ± 5.33 µM | – | 62.2 ± 1.03 | – | – | > 100 | – | –
14 | COc1cc(C2Oc3c(OC)cc(CCCO)cc3C2CO)ccc1OC(CO)CO [Compound 15, (7S,8R)-9,9′-dihydroxyl-3,3′-dimethoxyl-4-O-glycerol-7,8-dihydrobenzofuran-1′-propanolneoligan] | > 100 | > 100 | 13.2 ± 0.36 µM | – | > 100 | – | – | > 100 | – | –
15 | COc1cc(C2Oc3c(OC)cc(CCCO)cc3C2CO)ccc1OC1OC(CO)C(O)C(O)C1O [Compound 16, (7S,8R)-dihydrodehydrodiconiferyl alcohol-4-O-β-D-glucopyranoside] | > 100 | > 100 | 36.7 ± 0.8 µM | – | > 100 | – | – | > 100 | – | –
16 | COc1cc(C2Oc3c(OC)cc(CCCOC4OC(CO)C(O)C(O)C4O)cc3C2CO)ccc1O [Compound 17, (7S,8R)-dihydrodehydrodiconiferyl alcohol-9′-O-β-D-glucoside] | > 100 | 33.49 ± 0.31 | 17.3 ± 0.6 µM | – | > 100 | – | – | > 100 | – | –
17 | COc1cc([C@H](O)[C@H](CO)Oc2ccc(CCCO)cc2OC)ccc1O [Compound 19, threo-(7S,8S)-guaiacyl-glycerol-β-O-4′-dihydroconiferyl ether] | > 100 | 54.67 ± 0.34 | 43.6 ± 0.9 µM | – | 58.37 ± 0.44 | – | – | 95.63 ± 0.47 | – | –
18 | COc1cc([C@@H](O)[C@H](CO)Oc2ccc(CCCO)cc2OC)ccc1O [Compound 20, erythro-(7R,8S)-guaiacyl-glycerol-β-O-4′-dihydroconiferyl ether] | > 100 | 60.92 ± 0.46 | 53.16 ± 0.24 µM | – | 52.6 ± 1.33 | – | – | 93.6 ± 1.07 | – | –
19 | COc1cc([C@@H](O)[C@H](CO)Oc2c(OC)cc(CCCO)cc2OC)ccc1O[C@@H]1O[C@H](CO)[C@@H](O)[C@H](O)[C@H]1O [Compound 24, erythro-(7R,8S)-7,9,9-trihydroxy-3,3,5-trimethoxy-8-O-4-neolignan-4-O-β-D-glucopyranoside] | > 100 | > 100 | – | – | – | – | – | > 100 | – | –
20 | COc1cc(CCCO)cc(OC)c1OC(CO)CO [Compound 26, 2-[4-(3-hydroxy-propyl)-2,6-dimethoxyphenoxy]-propane-1,3-diol] | > 100 | > 100 | – | – | 56.52 ± 0.45 | – | – | – | – | –
21 | COc1cc([C@@H]2OC[C@H]3C(=O)OC[C@H]32)ccc1O [Compound 27, salicifoliol] | > 100 | 41.98 ± 0.33 | 66.86 ± 0.51 µM | – | > 100 | – | – | – | – | –
22 | COc1cc([C@@H]2OC(=O)[C@@H]3[C@H]2CO[C@H]3c2ccc(O)c(OC)c2)ccc1O [Compound 28, 4-ketopinoresinol] | > 100 | 20.4 ± 0.23 | 14.8 ± 1.2 µM | – | > 100 | – | – | – | – | –
23 | COc1cc([C@H]2OC[C@H]3[C@@H]2CO[C@@H]3c2cc(OC)c(O)c(OC)c2)cc(OC)c1O [Compound 31, (+)-syringaresinol] | 65.4 ± 1.48 | 23.7 ± 0.25 | 48.98 ± 0.39 µM | – | 49.1 ± 1.1 | – | – | – | – | –
24 | COc1cc(C(=O)O)ccc1O [Compound 37, vanillic acid] | > 100 | 88.32 ± 0.12 | – | – | – | – | – | – | – | –
25 | O=C(O)c1ccc(O)c(O)c1 [Compound 38, protocatechuic acid] | 33.1 ± 0.79 | 63.25 ± 0.51 | – | – | – | – | – | 44.75 ± 0.12 | – | –
26 | COc1ccc(C(=O)O)cc1O [Compound 41, isovanillic acid] | > 100 | 76.06 ± 0.48 | – | – | – | – | – | 91.1 ± 0.38 | – | –
27 | COC(=O)c1ccc(O)c(O)c1 [Compound 42, protocatechuic acid methyl ester] | 63.32 ± 0.41 | 83.21 ± 0.53 | – | – | – | – | – | 63 ± 0.65 | – | –
28 | COc1cc(O)c2c(c1)C(=O)c1cc(C)cc(O)c1C2=O [Compound 45, physcion] | > 100 | > 100 | 30 ± 0.57 µM | – | – | – | – | 24.75 ± 0.18 | – | –
29 | COc1ccc2c(c1)c(CC(=O)O)c(C)n2C(=O)c1ccc(Cl)cc1 [Indomethacin, reference compound] | – | – | 8.01 µg/mL and 22.4 µM | – | – | – | – | – | – | –
30 | (+)-pinoresinol [Compound 29] | 77.4 ± 2.98 | 18.49 ± 0.09 | – | – | 52.1 ± 0.93 | – | – | – | – | 69.94 ± 0.31
